The values below come from patent publication US7875596B2, “Use of dermatan sulfates and/or desulfated heparins to treat or prevent heparinoid-induced autoimmune responses” (Celsus Biopharmaceuticals, Inc., priority 2004, dated 2011).

In assay [1] the target is T1, purified α-thrombin in the presence of purified human HCII (Homo sapiens, UniProt P05546).
T1 construct: Performed in a plasma-free system with purified α-thrombin; purchased Enzyme Research Laboratories, South Bend Ind; (α-thrombin, Lot No. HT2450PRA)
T1 sequence (P05546 20-499): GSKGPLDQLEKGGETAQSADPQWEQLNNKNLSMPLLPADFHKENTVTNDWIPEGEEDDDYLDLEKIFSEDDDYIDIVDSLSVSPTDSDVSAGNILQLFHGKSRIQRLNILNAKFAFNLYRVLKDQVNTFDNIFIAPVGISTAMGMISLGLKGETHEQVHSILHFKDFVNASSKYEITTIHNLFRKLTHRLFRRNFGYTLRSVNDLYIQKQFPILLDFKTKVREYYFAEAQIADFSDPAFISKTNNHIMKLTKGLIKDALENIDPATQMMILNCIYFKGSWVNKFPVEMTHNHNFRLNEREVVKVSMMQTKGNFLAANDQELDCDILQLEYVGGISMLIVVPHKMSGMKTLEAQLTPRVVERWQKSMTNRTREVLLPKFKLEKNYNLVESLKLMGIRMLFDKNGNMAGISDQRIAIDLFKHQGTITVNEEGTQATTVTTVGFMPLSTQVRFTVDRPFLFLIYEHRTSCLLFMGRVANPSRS
The assay can be described thus: HCII/anti-IIa activity (plasma-free chromogenic anti-IIa assay with heparin cofactor II). It counts as biochemical. The source says:
For the purposes of the present invention, the terms “heparin cofactor II (HCII)-dependent anti-IIa activity,” “heparin cofactor II activity” and “HCII activity” refer interchangeably to the thrombin inhibitory potency of a sulfated mucopolysaccharide measured in the presence of purified human heparin cofactor II.
The chemical, physical and physiological properties of the dermatan sulfates, including the LMWDS embodiments, of this invention can be determined by the following methods: • a. Molecular weight. By gel permeation chromatography according to the method of and as defined by van Dedem et al., “Determinations of the Molecular Mass of Low Molecular Mass (LMM) Heparin,” Pharmeuropa (1991) 3:202-225 (herein incorporated by reference), using the 1st International Reference Standard for Low Molecular Weight Heparin (90/868) as the calibrant. Average molecular weights. […] The % sulfur is determined from the weight of barium sulfate. • c. […] Measurements can be performed manually or on an ACL 300 Plus Analyzer (Instrumentation Laboratory, Lexington Mass.) and anti-factor IIa activity calculated based on the USP Heparin Reference Standard K-5 (U.S. Pharmacopeial Convention, Inc., Rockville Md.). • e. […] Quantified by the PF4 ENHANCED® ELISA kit (Cat. No. X-HAT 45) according to the manufacturer's instructions (GTI, Waukesha Wis.).

A short description of assay [2]: Heparin assay (USP heparin potency). The source says: The chemical, physical and physiological properties of the dermatan sulfates, including the LMWDS embodiments, of this invention can be determined by the following methods: • a. Molecular weight. By gel permeation chromatography according to the method of and as defined by van Dedem et al., “Determinations of the Molecular Mass of Low Molecular Mass (LMM) Heparin,” Pharmeuropa (1991) 3:202-225 (herein incorporated by reference), using the 1st International Reference Standard for Low Molecular Weight Heparin (90/868) as the calibrant. Average molecular weights. By viscometric methods as described by Liberti et al., “Physiochemical Studies of Fractionated Bovine Heparin II: Viscosity as a Function of Ionic Strength,” Arch. Biochem. Biophys. […] The % sulfur is determined from the weight of barium sulfate. • c. […] Measurements can be performed manually or on an ACL 300 Plus Analyzer (Instrumentation Laboratory, Lexington Mass.) and anti-factor IIa activity calculated based on the USP Heparin Reference Standard K-5 (U.S. Pharmacopeial Convention, Inc., Rockville Md.). • e. […] Quantified by the PF4 ENHANCED® ELISA kit (Cat. No. X-HAT 45) according to the manufacturer's instructions (GTI, Waukesha Wis.).
The chemical, physical and physiological properties of the O-desulfated heparins of this invention can be determined by the following methods: • a. […]

On to dermatan sulfate, for which the HCII/anti-IIa activity result in assay [1] was “less than 15 u/mg”. Besides, the heparin assay in assay [2] was less than 8 u/mg.
